Experimental data published in the NIST ThermoML archive (doi:10.1016/j.jct.2014.02.005).
Numbers after ± are expanded uncertainties.

Settings: 101.33 kPa, Liquid, Vibrating tube method

SMILES: CC(=O)O [acetic acid]
- mass density (288.2 K): 1055.01 ± 1 kg/m3
- mass density (298.2 K): 1043.67 ± 1 kg/m3
- mass density (313.2 K): 1026.72 ± 1 kg/m3

SMILES: O [water]
- mass density (313.2 K): 992.13 ± 1 kg/m3

SMILES: Cc1ccccc1 [toluene]
- mass density (288.2 K): 871.92 ± 1 kg/m3
- mass density (298.2 K): 862.49 ± 1 kg/m3
- mass density (313.2 K): 848.23 ± 1 kg/m3
